Holding throughout (type): biochemical
Test [1] can be described thus: Test 1: plasmin/plasmin-like activity, cleavage of substrate by the sample. The following applies: Table 2. As for the experimental part:
Each fraction was diluted 1:5 in TRIS buffer (50 mM, pH 7.4, I 0.15), and then mixed with the substrate. […] In Test 2, 30 μl of a 1:40 dilution of normal human plasma were used, and in Test 3, 30 µl of […] of pure plasminogen were used. The results, shown as ΔmA/min, represents the average of five readings.

The subject of test [2] is normal human blood pooled plasma. Description: Test 2: plasminogen activity, sample incubated with normal human pooled plasma. The note with it: Table 2. As for the experimental part: Following this, the samples, diluted, were incubated with normal human blood pooled plasma, which had been diluted 1:40 in TRIS buffer, in proportions of 1 part fraction to two parts plasma. These combinations were incubated to determine if the fractions had plasminogen activator properties.
(§1) In Test 2, 30 μl of a 1:40 dilution of normal human plasma were used, and in Test 3, 30 µl of […] of pure plasminogen were used. The results, shown as ΔmA/min, represents the average of five readings.

Another test addresses purified plasminogen (Homo sapiens, UniProt P00747). The experiment in a line: Test 3: plasminogen activatory activity, sample incubated with purified plasminogen. As for the experimental part:
In a third test, each fraction was incubated with purified plasminogen so as to enhance activity, because normal human pooled plasma contains plasma proteins inhibitors.
as §1

The target in the next test is plasmin (Homo sapiens, UniProt P00747). Description: Antiplasmin/plasmin inhibitory activity. The following applies: Table 3; for ABSORBANCE: absorbance at 405nm, remaining active plasmin, substrate S-225; for % INHIBITION: by reference to normal human pooled plasma standard curve. As for the experimental part: Fifty-four different runs were conducted, using various compounds and compositions. […] A standard curve is then constructed, by diluting the pooled plasma, and mixing each dilution with a known plasmin standard. Quantity of active plasmin remaining is measured and this quantity is inversely proportional to antiplasmin activity.

[3] abbreviates: Table I, sample 1:5 dilution, pure plasminogen, average of five readings.

Values joined by “and” are separate entries in the source; they are usually repeats but may differ in a detail not shown here. Identical values can stand only once.

Sequence of purified plasminogen (P00747 20-810 limits assumed): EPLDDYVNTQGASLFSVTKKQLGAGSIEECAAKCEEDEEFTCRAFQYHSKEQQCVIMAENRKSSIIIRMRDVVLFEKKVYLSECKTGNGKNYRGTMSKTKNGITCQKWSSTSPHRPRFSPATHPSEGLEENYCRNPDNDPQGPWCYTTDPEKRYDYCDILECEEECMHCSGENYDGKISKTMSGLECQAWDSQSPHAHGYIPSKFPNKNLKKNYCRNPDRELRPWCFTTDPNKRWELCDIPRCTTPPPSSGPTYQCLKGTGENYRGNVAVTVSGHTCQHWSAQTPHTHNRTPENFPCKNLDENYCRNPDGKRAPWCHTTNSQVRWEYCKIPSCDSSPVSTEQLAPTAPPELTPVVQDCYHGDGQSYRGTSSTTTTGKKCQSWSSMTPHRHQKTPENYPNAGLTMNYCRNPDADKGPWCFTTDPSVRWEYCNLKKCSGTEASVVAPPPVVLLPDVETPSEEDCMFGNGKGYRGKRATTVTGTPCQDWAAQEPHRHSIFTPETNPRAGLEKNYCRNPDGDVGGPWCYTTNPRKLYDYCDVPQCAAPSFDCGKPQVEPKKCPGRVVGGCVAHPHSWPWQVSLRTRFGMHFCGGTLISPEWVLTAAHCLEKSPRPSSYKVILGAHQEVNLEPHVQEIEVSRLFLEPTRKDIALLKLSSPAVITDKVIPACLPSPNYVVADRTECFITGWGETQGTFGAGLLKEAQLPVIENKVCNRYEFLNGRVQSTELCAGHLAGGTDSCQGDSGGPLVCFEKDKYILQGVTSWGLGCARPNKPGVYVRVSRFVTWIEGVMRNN

As for “CERAMIDE GALACTOSIDE [PURIFIED CERAMIDE GALACTOSIDE]”, in test [1], the “Plasmin Activity” value came out at 0. In addition, in test [2], the “Plasminogen Activity” value was determined as 0. The “Plasminogen Activatory Activity” value on purified plasminogen (Table 2) came to 0. Also, the ABSORBANCE at plasmin is 0.176 and 0.192.

On to “CERAMIDE TRIHEXOSIDE [PURIFIED CERAMIDE TRIHEXOSIDE]”, for which the “Plasmin Activity” value in test [1] came out at 0. The “Plasminogen Activity” value in test [2] stood at 0. In addition, the “Plasminogen Activatory Activity” value on purified plasminogen (Table 2) was 0. Also, on plasmin, the ABSORBANCE stood at 0.184 and the “% INHIBITION” value was determined as 0%.

Turning to “DIGALACTOSYL DIGLYCERIDE [PURIFIED DIGALACTOSYL DIGLYCERIDE]”, the “Plasmin Activity” value in test [1] was found to be 0. Moreover, the “Plasminogen Activity” value in test [2] was determined as 0. At purified plasminogen (Table 2), the “Plasminogen Activatory Activity” value is listed as 0. At plasmin, the ABSORBANCE is given as 0.190 and the “% INHIBITION” value amounted to 0%.

In the case of PHOSPHATIDYL INOSITOL 4-MONOPHOSPHATE, the ABSORBANCE result at plasmin is “Turbid”.

For the molecule “PHOSPHATIDYL INOSITOL [PURIFIED PHOSPHATIDYL INOSITOL]”, the “Plasmin Activity” value in test [1] came to 0. In addition, the “Plasminogen Activity” value in test [2] is recorded as 0. The “Plasminogen Activatory Activity” value at purified plasminogen (Table 2) came to 0. Besides, on plasmin, the ABSORBANCE is recorded as 0.187 and the “% INHIBITION” value is listed as 0%.

As for “PURE PLASMINOGEN: purified plasminogen used in Test 3, tested alone”, the “Plasminogen Activatory Activity” value in the test with purified plasminogen (setting [3]) is 0 ΔmA/min.

As for SPHINGOMYELIN, the “% INHIBITION” value on plasmin amounted to 18%.

B1: ACTIVATED PURE PLASMINOGEN: activated pure plasminogen, positive reference in Test 3 (protein, UniProt P00747 20-580; P00747 581-810, looked up)
Plasmin heavy chain A: EPLDDYVNTQGASLFSVTKKQLGAGSIEECAAKCEEDEEFTCRAFQYHSKEQQCVIMAENRKSSIIIRMRDVVLFEKKVYLSECKTGNGKNYRGTMSKTKNGITCQKWSSTSPHRPRFSPATHPSEGLEENYCRNPDNDPQGPWCYTTDPEKRYDYCDILECEEECMHCSGENYDGKISKTMSGLECQAWDSQSPHAHGYIPSKFPNKNLKKNYCRNPDRELRPWCFTTDPNKRWELCDIPRCTTPPPSSGPTYQCLKGTGENYRGNVAVTVSGHTCQHWSAQTPHTHNRTPENFPCKNLDENYCRNPDGKRAPWCHTTNSQVRWEYCKIPSCDSSPVSTEQLAPTAPPELTPVVQDCYHGDGQSYRGTSSTTTTGKKCQSWSSMTPHRHQKTPENYPNAGLTMNYCRNPDADKGPWCFTTDPSVRWEYCNLKKCSGTEASVVAPPPVVLLPDVETPSEEDCMFGNGKGYRGKRATTVTGTPCQDWAAQEPHRHSIFTPETNPRAGLEKNYCRNPDGDVGGPWCYTTNPRKLYDYCDVPQCAAPSFDCGKPQVEPKKCPGR
Plasmin light chain B: VVGGCVAHPHSWPWQVSLRTRFGMHFCGGTLISPEWVLTAAHCLEKSPRPSSYKVILGAHQEVNLEPHVQEIEVSRLFLEPTRKDIALLKLSSPAVITDKVIPACLPSPNYVVADRTECFITGWGETQGTFGAGLLKEAQLPVIENKVCNRYEFLNGRVQSTELCAGHLAGGTDSCQGDSGGPLVCFEKDKYILQGVTSWGLGCARPNKPGVYVRVSRFVTWIEGVMRNN
modifications: Plasmin
Take B1: the “Plasminogen Activatory Activity” value with purified plasminogen (setting [3]) was 19 ΔmA/min and 18 ΔmA/min.

These data come from US4766111A, “Lipids with plasmin inhibitory properties” (Trustees of Boston University, priority 1987, dated 1988).
